Test results from ChEMBL document CHEMBL1127439, “Structure-activity relationship studies of central nervous system agents. 13. 4-[3-(Benzotriazol-1-yl)propyl]-1-(2-methoxyphenyl)piperazine, a new putative 5-HT1A receptor antagonist, and its analogs” (J Med Chem, 1994).

Experiments:
Rattus norvegicus [1] = assay: Tested for the effect on 8-OH-DPAT-induced behavior in reserpine pretreated rat against forepaw treading at dosage of 4 mg/kg; type: functional
Mus musculus [2] = assay: Effect on 8-OH-DPAT-induced hypothermia in mice (5 mg/kg) at intraperitoneal dosage of 4 mg/kg of compound after 15 mins; type: functional
[3] = target: Serotonin 2 (5-HT2) receptor (Rattus norvegicus, UniProt P30994+P08909+P14842); assay: Tested in vitro for receptor binding affinity against 5-hydroxytryptamine 2 receptor using radioligand [3H]ketanserin; type: protein assay
Mus musculus [4] = assay: Effect on body temperature in mice at intraperitoneal dosage of 2 mg/kg, (compound administered 30 min before the test) after 75 min; type: functional
Rattus norvegicus [5] = assay: Tested for the effect on 8-OH-DPAT-induced behavior in reserpine pretreated rat against forepaw treading at dosage of 16 mg/kg; type: functional
Mus musculus [6] = assay: Effect on body temperature in mice at intraperitoneal dosage of 4 mg/kg, (compound administered 30 min before the test) after 90 min; type: functional
Rattus norvegicus [7] = assay: Tested for the effect on 8-OH-DPAT-induced lower lip retraction (LLR) in rat at dosage of 16 mg/kg; type: functional
Rattus norvegicus [8] = species: Rattus norvegicus; assay: Selectivity is the ratio between Ki values of 5-HT2 and 5-HT1A
Mus musculus [9] = assay: Effect on 8-OH-DPAT-induced hypothermia in mice (5 mg/kg) at intraperitoneal dosage of 4 mg/kg of compound after 45 mins; type: functional
Rattus norvegicus [10] = assay: Tested for the effect on 8-OH-DPAT-induced behavior in reserpine pretreated rat against flat body posture at dosage of 2 mg/kg; type: functional
[11] = target: T1, 5-hydroxytryptamine receptor 1A (Rattus norvegicus, UniProt P19327); assay: Tested in vitro for receptor binding affinity against 5-hydroxytryptamine 1A receptor using radioligand [3H]8-OH-DPAT
T1 sequence (P19327 whole entry): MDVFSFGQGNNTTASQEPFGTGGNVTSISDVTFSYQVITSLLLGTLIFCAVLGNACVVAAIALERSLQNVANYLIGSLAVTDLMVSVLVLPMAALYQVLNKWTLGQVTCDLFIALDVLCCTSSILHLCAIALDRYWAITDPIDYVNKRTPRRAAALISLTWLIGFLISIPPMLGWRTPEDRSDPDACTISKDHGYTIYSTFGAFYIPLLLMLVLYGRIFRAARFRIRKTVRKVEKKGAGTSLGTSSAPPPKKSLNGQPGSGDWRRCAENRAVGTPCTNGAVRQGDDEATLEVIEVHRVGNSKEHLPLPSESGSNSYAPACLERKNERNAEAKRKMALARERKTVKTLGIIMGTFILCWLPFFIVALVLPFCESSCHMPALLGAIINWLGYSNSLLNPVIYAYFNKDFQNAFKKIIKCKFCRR

Mus musculus [12] = assay: Effect on 8-OH-DPAT-induced hypothermia in mice (5 mg/kg) at intraperitoneal dosage of 2 mg/kg of compound after 45 mins; type: functional
Rattus norvegicus [13] = assay: Tested for the effect on 8-OH-DPAT-induced lower lip retraction (LLR) in rat at dosage of 8 mg/kg; type: functional
Mus musculus [14] = assay: Effect on body temperature in mice at intraperitoneal dosage of 2 mg/kg, (compound administered 30 min before the test) after 90 min; type: functional
Rattus norvegicus [15] = assay: Tested for the effect on 8-OH-DPAT-induced behavior in reserpine pretreated rat against flat body posture at dosage of 16 mg/kg; type: functional
Mus musculus [16] = assay: Effect on body temperature in mice at intraperitoneal dosage of 4 mg/kg, (compound administered 30 min before the test) after 60 min; type: functional
Rattus norvegicus [17] = assay: Tested for the effect on 8-OH-DPAT-induced behavior in reserpine pretreated rat against flat body posture at dosage of 4 mg/kg; type: functional
Rattus norvegicus [18] = assay: Tested for the induction of lower lip retraction (LLR) by the investigated compounds in rat at dosage of 16 mg/kg; type: functional
Rattus norvegicus [19] = assay: Tested for the effect on 8-OH-DPAT-induced behavior in reserpine pretreated rat against forepaw treading at dosage of 2 mg/kg; type: functional
Mus musculus [20] = assay: Effect on 8-OH-DPAT-induced hypothermia in mice (5 mg/kg) at intraperitoneal dosage of 8 mg/kg of compound after 60 mins; type: functional
Mus musculus [21] = assay: Effect on body temperature in mice at intraperitoneal dosage of 8 mg/kg, (compound administered 30 min before the test) after 60 min; type: functional
Mus musculus [22] = assay: Effect on body temperature in mice at intraperitoneal dosage of 2 mg/kg, (compound administered 30 min before the test) after 60 min; type: functional
Rattus norvegicus [23] = assay: Tested for the induction of lower lip retraction (LLR) by the investigated compounds in rat at dosage of 2 mg/kg; type: functional
Mus musculus [24] = assay: Effect on body temperature in mice at intraperitoneal dosage of 8 mg/kg, (compound administered 30 min before the test) after 75 min; type: functional
Rattus norvegicus [25] = assay: Tested for the induction of lower lip retraction (LLR) by the investigated compounds in rat at dosage of 4 mg/kg; type: functional
Mus musculus [26] = assay: Effect on 8-OH-DPAT-induced hypothermia in mice (5 mg/kg) at intraperitoneal dosage of 4 mg/kg of compound after 60 mins; type: functional
Rattus norvegicus [27] = assay: Tested for the effect on 8-OH-DPAT-induced behavior in reserpine pretreated rat against flat body posture at dosage of 1 mg/kg; type: functional
Mus musculus [28] = assay: Effect on 8-OH-DPAT-induced hypothermia in mice (5 mg/kg) at intraperitoneal dosage of 8 mg/kg of compound after 15 mins; type: functional
Mus musculus [29] = assay: Effect on body temperature in mice at intraperitoneal dosage of 2 mg/kg, (compound administered 30 min before the test) after 30 min; type: functional
Mus musculus [30] = assay: Effect on 8-OH-DPAT-induced hypothermia in mice (5 mg/kg) at intraperitoneal dosage of 2 mg/kg of compound after 30 mins; type: functional
Rattus norvegicus [31] = assay: Tested for the induction of lower lip retraction (LLR) by the investigated compounds in rat at dosage of 8 mg/kg; type: functional
Rattus norvegicus [32] = assay: Tested for the effect on 8-OH-DPAT-induced behavior in reserpine pretreated rat against forepaw treading at dosage of 1 mg/kg; type: functional
Mus musculus [33] = assay: Effect on 8-OH-DPAT-induced hypothermia in mice (5 mg/kg) at intraperitoneal dosage of 2 mg/kg of compound after 15 mins; type: functional
Mus musculus [34] = assay: Effect on body temperature in mice at intraperitoneal dosage of 4 mg/kg, (compound administered 30 min before the test) after 75 min; type: functional
Rattus norvegicus [35] = assay: Tested for the effect on 8-OH-DPAT-induced behavior in reserpine pretreated rat against forepaw treading at dosage of 8 mg/kg; type: functional
Mus musculus [36] = assay: Effect on 8-OH-DPAT-induced hypothermia in mice (5 mg/kg) at intraperitoneal dosage of 8 mg/kg of compound after 45 mins; type: functional
Mus musculus [37] = assay: Effect on body temperature in mice at intraperitoneal dosage of 8 mg/kg, (compound administered 30 min before the test) after 45 min; type: functional
Mus musculus [38] = assay: Effect on body temperature in mice at intraperitoneal dosage of 4 mg/kg, (compound administered 30 min before the test) after 30 min; type: functional
Mus musculus [39] = assay: Effect on body temperature in mice at intraperitoneal dosage of 8 mg/kg, (compound administered 30 min before the test) after 90 min; type: functional
Mus musculus [40] = assay: Effect on 8-OH-DPAT-induced hypothermia in mice (5 mg/kg) at intraperitoneal dosage of 8 mg/kg of compound after 30 mins; type: functional
Mus musculus [41] = assay: Effect on body temperature in mice at intraperitoneal dosage of 2 mg/kg, (compound administered 30 min before the test) after 45 min; type: functional
Rattus norvegicus [42] = assay: Tested for the effect on 8-OH-DPAT-induced lower lip retraction (LLR) in rat at dosage of 4 mg/kg; type: functional
Mus musculus [43] = assay: Effect on body temperature in mice at intraperitoneal dosage of 8 mg/kg, (compound administered 30 min before the test) after 30 min; type: functional
Rattus norvegicus [44] = assay: Tested for the effect on 8-OH-DPAT-induced lower lip retraction (LLR) in rat at dosage of 2 mg/kg; type: functional
Mus musculus [45] = assay: Effect on 8-OH-DPAT-induced hypothermia in mice (5 mg/kg) at intraperitoneal dosage of 4 mg/kg of compound after 30 mins; type: functional
Mus musculus [46] = assay: Effect on 8-OH-DPAT-induced hypothermia in mice (5 mg/kg) at intraperitoneal dosage of 2 mg/kg of compound after 60 mins; type: functional
Rattus norvegicus [47] = assay: Tested for the effect on 8-OH-DPAT-induced behavior in reserpine pretreated rat against flat body posture at dosage of 8 mg/kg; type: functional
Mus musculus [48] = assay: Effect on body temperature in mice at intraperitoneal dosage of 4 mg/kg, (compound administered 30 min before the test) after 45 min; type: functional

## COc1ccccc1N1CCN(CCCCn2nc3ccccc3n2)CC1
Rattus norvegicus [1]
  Behavioral score: 5.1
Mus musculus [2]
  Delta t: 2.7 °C
[3]
  Ki: 214 nM
Mus musculus [4]
  Delta t: 0.3 °C
Rattus norvegicus [5]
  Behavioral score: 1.3
Mus musculus [6]
  Delta t: 0.8 °C
Rattus norvegicus [7]
  LLR score: 2.4
Rattus norvegicus [8]
  Selectivity: 54
Mus musculus [9]
  Delta t: 1.8 °C
Rattus norvegicus [10]
  Behavioral score: 9.3
[11]
  Ki: 4 nM
Mus musculus [12]
  Delta t: 1.2 °C
Rattus norvegicus [13]
  LLR score: 2.4
Mus musculus [14]
  Delta t: 0.1 °C
Rattus norvegicus [15]
  Behavioral score: 2.6
Mus musculus [16]
  Delta t: 0.9 °C
Rattus norvegicus [17]
  Behavioral score: 11.7
Rattus norvegicus [18]
  LLR score: 1.9
Rattus norvegicus [19]
  Behavioral score: 5.6
Mus musculus [20]
  Delta t: 1.1 °C
Mus musculus [21]
  Delta t: 2 °C
Mus musculus [22]
  Delta t: 0.2 °C
Rattus norvegicus [23]
  LLR score: 0.3
Mus musculus [24]
  Delta t: 2 °C
Rattus norvegicus [25]
  LLR score: 1
Mus musculus [26]
  Delta t: 1.3 °C
Rattus norvegicus [27]
  Behavioral score: 14.2
Mus musculus [28]
  Delta t: 2.4 °C
Mus musculus [29]
  Delta t: 0.1 °C
Mus musculus [30]
  Delta t: 1.9 °C
Rattus norvegicus [31]
  LLR score: 1.5
Rattus norvegicus [32]
  Behavioral score: 13.6
Mus musculus [33]
  Delta t: 2.1 °C
Mus musculus [34]
  Delta t: 0.8 °C
Rattus norvegicus [35]
  Behavioral score: 2.4
Mus musculus [36]
  Delta t: 1.6 °C
Mus musculus [37]
  Delta t: 2.5 °C
Mus musculus [38]
  Delta t: 0.9 °C
Mus musculus [39]
  Delta t: 1.4 °C
Mus musculus [40]
  Delta t: 2.2 °C
Mus musculus [41]
  Delta t: 0 °C
Rattus norvegicus [42]
  LLR score: 2.3
Mus musculus [43]
  Delta t: 2.8 °C
Rattus norvegicus [44]
  LLR score: 2.5
Mus musculus [45]
  Delta t: 2.3 °C
Mus musculus [46]
  Delta t: 0.9 °C
Rattus norvegicus [47]
  Behavioral score: 5.2
Mus musculus [48]
  Delta t: 0.8 °C
